One test addresses SpNanA (Streptococcus pneumoniae, UniProt P62575). Briefly: Sialidase inhibition assay (Example 7). The class given is biochemical. As to conditions: for inhibition at 1000 µM: pH 6, read-out: Percentage inhibition (%) against SpNanA; for Percentage inhibition (%) against SpNanA: 1 mM of each inhibitor, substrate Neu5Acα2-3GalβpNP 0.3 mM, pH 6.0.
Test [1] deals with T1, SpNanB (Streptococcus pneumoniae serotype 4, UniProt Q54727, E68D/K536E/K577E/N393D/S59P). Briefly: Sialidase inhibition assay (Example 7). The test is classed as biochemical. As to conditions: for inhibition at 1000 µM: pH 6, read-out: Percentage inhibition (%) against SpNanB; for Percentage inhibition (%) against SpNanB: 1 mM of each inhibitor, substrate Neu5Acα2-3GalβpNP 0.3 mM, pH 6.0.

The next test concerns the target T2, AuSialidase (Paenarthrobacter ureafaciens, UniProt Q5W7Q2).
T2 sequence (Q5W7Q2 39-990): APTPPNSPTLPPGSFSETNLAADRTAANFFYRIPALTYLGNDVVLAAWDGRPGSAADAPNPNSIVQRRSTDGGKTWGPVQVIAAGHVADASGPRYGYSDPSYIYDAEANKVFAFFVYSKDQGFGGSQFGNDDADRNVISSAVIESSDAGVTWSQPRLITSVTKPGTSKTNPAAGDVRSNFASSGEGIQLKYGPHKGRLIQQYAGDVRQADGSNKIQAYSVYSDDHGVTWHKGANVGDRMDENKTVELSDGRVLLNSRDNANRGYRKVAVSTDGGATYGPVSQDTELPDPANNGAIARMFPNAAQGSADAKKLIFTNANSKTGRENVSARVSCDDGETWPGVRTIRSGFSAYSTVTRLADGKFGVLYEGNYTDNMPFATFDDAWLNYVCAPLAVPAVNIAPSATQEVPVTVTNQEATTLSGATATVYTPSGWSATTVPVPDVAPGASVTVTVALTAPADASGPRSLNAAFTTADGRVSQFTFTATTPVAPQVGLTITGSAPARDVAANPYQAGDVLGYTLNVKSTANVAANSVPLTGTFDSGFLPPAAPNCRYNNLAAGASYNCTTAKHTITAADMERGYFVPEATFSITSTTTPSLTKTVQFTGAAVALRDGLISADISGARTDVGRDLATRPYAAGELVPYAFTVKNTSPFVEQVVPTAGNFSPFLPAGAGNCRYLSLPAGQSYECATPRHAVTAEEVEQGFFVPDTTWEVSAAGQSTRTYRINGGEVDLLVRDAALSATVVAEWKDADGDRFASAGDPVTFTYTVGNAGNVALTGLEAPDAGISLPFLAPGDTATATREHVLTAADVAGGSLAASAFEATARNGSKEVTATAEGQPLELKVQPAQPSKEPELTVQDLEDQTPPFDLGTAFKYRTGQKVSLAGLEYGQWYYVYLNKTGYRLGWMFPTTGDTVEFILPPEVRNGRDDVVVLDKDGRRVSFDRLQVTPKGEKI
Briefly: Sialidase inhibition assay (Example 7). The test is classed as biochemical, Arthrobacter ureafaciens. The conditions noted are these: for inhibition at 1000 µM: read-out: Percentage inhibition (%) against AuSialidase.

The next test concerns CpNanI. The test is classed as biochemical, Clostridium perfringens. The conditions noted are these: 1 mM of each inhibitor; substrate Neu5Acα2-3GalβpNP 0.3 mM; pH 5.0.
The target of another test is VcSialidase (Vibrio cholerae serotype O1, UniProt P0C6E9). As to the kind of experiment: Sialidase inhibition assay (Example 7). The test is classed as biochemical. As to conditions: for inhibition at 1000 µM: pH 5.5, read-out: Percentage inhibition (%) against VcSialidase.
A further test has as its target PmST1 (Pasteurella multocida, UniProt Q15KI8). As to the kind of experiment: Sialidase inhibition assay (Example 7). The test is classed as biochemical. As to conditions: 1 mM of each inhibitor; substrate Neu5Acα2-3GalβpNP 0.3 mM; CMP 0.4 mM; pH 5.5; read-out: Percentage inhibition (%) against PmST1.
Another test addresses BiNanH2 (Bifidobacterium longum subsp. infantis, UniProt A0ACD7UU12). As to the kind of experiment: Sialidase inhibition assay (Example 7). As to conditions: pH 5, read-out: Percentage inhibition (%) against BiNanH2. The test is classed as biochemical.
The next test concerns the target hNEU2 (Homo sapiens, UniProt Q9Y3R4). Briefly: Sialidase inhibition assay (Example 7). The test is classed as biochemical. The conditions noted are these: 1 mM of each inhibitor; substrate Neu5Acα2-3GalβpNP 0.3 mM; pH 5.0; read-out: Percentage inhibition (%) against hNEU2.
Test [2] concerns the target T3, SpNanC (Streptococcus pneumoniae, UniProt A0A0H2UQE4). As to the kind of experiment: Sialidase inhibition assay (Example 7). The conditions noted are these: for inhibition at 1000 µM: pH 6.5, read-out: Percentage inhibition (%) against SpNanC.
In test [3] the target is T1, SpNanB. Briefly: Hydrolysis of 2,7-anhydro-sialic acids by SpNanB. The conditions noted are these: SpNanB (1.0 mg/mL); 37° C. for 24 h.
Test [4] has as its target T3, SpNanC. As to conditions: Tris-HCl pH 7.0, 10 min at 37° C.
The target of test [5] is T1, SpNanB. As to the kind of experiment: Substrate specificity of SpNanB. The conditions noted are these: pNP-tagged α2-3-linked sialosides.
Test [6] concerns SpNanC. As to the kind of experiment: Substrate specificity assay of SpNanC. As to conditions: sialoside substrate 0.3 mM; SpNanC (2 μg); Tris-HCl pH 7.0; 30 min, 37° C.
Test [7] relates to SpNanC. As to conditions: previously reported recombinant SpNanC; cited from earlier work.
[8] abbreviates: 1 mM of each inhibitor, substrate Neu5Acα2-3GalβpNP 0.3 mM, pH 5.5.

The structures appear in SMILES notation.

The source of these data is patent publication US11325936B2, “Sialidase inhibitors and preparation thereof” (The Regents of the University of California, priority 2017, dated 2022).

VcSialidase, sequence (P0C6E9 25-781): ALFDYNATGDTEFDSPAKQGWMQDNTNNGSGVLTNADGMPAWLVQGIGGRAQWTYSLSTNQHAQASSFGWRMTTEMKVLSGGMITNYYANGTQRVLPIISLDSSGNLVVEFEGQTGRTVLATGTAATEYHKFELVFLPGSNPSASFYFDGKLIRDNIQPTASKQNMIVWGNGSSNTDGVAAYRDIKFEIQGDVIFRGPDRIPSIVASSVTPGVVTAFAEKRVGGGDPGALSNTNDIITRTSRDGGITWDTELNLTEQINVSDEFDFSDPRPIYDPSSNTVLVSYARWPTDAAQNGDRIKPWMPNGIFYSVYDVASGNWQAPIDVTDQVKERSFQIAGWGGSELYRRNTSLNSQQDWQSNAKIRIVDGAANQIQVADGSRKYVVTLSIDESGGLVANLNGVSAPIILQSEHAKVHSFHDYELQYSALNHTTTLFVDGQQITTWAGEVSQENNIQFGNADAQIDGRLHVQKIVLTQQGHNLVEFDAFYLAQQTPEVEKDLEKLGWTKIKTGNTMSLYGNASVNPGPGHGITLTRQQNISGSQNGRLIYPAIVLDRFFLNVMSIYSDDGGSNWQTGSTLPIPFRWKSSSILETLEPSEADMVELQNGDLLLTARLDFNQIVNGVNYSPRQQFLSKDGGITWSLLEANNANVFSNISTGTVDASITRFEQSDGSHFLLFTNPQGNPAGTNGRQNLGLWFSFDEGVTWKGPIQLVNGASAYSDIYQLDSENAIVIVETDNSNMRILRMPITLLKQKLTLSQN
BiNanH2, sequence (A0ACD7UU12 entry or part of it): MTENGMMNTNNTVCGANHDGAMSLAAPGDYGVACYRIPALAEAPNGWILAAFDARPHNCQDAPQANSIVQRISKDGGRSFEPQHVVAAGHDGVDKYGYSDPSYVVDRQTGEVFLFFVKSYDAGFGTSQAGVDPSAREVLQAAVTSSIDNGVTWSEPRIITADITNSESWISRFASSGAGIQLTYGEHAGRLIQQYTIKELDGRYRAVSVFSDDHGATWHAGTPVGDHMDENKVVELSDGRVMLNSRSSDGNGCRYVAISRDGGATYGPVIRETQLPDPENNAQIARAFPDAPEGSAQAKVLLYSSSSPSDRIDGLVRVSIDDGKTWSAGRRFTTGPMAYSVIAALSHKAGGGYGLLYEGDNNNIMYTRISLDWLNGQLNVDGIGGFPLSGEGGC
PmST1, sequence (Q15KI8 entry or part of it): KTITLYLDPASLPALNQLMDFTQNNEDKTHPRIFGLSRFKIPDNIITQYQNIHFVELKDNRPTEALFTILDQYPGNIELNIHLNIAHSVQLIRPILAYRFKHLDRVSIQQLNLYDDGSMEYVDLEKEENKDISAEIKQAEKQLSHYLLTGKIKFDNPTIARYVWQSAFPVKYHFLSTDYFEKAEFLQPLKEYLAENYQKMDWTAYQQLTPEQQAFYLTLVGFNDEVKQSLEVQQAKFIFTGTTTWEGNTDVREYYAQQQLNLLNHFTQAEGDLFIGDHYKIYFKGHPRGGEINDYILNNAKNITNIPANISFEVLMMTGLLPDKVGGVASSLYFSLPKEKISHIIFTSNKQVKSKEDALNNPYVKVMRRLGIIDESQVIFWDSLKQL
hNEU2, sequence (Q9Y3R4 whole entry): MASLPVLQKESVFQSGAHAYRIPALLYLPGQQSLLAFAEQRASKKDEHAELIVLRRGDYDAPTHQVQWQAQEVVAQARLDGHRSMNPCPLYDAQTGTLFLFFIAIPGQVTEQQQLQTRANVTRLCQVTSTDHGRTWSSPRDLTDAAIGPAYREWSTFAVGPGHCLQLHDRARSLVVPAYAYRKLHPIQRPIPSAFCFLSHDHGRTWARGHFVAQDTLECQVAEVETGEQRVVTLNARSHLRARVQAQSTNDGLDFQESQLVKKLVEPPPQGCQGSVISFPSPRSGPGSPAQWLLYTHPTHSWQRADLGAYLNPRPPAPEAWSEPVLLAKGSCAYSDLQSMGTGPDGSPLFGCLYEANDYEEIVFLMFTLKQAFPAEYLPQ
SpNanA, sequence (P62575 54-1006): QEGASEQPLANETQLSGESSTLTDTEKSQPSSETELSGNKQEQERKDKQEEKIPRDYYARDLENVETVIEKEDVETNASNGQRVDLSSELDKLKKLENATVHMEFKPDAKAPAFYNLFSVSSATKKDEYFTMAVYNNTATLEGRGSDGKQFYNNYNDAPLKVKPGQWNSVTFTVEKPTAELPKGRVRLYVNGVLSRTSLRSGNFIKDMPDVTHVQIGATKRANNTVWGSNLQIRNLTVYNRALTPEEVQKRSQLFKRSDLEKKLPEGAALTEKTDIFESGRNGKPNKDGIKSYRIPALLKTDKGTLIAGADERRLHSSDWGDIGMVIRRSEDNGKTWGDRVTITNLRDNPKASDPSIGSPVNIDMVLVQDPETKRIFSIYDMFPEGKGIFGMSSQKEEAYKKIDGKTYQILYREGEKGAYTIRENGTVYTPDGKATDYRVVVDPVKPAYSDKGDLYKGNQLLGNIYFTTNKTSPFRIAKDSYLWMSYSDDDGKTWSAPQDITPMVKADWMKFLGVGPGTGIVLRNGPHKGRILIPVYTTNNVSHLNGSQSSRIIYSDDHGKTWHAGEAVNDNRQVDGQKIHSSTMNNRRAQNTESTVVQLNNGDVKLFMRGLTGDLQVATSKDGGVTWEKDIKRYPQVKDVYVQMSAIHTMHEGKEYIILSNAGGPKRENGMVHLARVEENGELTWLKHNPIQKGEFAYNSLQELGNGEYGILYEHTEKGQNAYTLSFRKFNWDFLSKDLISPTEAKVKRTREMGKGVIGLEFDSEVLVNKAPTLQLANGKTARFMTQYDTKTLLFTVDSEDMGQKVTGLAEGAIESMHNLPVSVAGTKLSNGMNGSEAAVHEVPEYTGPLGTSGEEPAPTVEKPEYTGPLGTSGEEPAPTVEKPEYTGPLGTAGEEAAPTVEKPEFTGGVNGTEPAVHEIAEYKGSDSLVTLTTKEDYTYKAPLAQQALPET
T3 sequence (A0A0H2UQE4 entry or part of it): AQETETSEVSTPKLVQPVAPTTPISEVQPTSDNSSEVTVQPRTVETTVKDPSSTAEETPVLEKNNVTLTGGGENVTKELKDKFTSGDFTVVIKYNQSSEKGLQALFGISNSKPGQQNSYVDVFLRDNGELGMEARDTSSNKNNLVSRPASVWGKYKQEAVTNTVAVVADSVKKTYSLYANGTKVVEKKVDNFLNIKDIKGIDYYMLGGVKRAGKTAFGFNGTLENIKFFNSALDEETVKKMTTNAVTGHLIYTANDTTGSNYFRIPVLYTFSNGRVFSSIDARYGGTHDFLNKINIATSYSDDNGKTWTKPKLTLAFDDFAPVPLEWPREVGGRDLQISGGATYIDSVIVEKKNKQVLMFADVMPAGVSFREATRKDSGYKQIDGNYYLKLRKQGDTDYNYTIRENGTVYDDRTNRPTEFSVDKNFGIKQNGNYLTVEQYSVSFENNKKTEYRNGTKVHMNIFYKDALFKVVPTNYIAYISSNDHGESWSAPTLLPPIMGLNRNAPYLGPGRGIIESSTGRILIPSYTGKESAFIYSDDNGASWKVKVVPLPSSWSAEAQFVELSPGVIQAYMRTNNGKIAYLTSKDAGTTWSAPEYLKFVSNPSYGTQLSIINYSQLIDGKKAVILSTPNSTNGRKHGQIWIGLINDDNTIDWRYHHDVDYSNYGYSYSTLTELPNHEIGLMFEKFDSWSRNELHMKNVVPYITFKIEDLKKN
T1 sequence (Q54727 30-697 S59P/E68D/N393D/K536E/K577E): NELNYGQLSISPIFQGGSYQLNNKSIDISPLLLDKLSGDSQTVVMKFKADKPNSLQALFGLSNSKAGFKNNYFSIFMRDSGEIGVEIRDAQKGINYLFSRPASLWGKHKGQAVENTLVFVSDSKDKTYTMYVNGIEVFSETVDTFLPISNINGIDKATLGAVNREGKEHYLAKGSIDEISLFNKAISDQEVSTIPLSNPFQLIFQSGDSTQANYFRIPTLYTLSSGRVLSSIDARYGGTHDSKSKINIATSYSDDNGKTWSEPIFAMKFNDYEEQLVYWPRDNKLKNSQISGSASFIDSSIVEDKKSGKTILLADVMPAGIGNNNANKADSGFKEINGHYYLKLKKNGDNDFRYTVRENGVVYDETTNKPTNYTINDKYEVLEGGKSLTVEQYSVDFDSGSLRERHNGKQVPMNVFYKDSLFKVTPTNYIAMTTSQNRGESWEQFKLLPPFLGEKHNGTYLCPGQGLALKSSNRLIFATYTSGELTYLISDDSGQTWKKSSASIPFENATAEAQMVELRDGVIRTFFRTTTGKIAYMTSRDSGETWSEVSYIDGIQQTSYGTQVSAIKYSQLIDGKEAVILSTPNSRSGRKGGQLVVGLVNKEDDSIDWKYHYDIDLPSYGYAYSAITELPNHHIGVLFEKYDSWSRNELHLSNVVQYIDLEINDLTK

On to `CC(=O)N[C@H]1[C@H]2O[C@@](C(=O)O)(C[C@@H]1O)O[C@@H]2[C@H](O)CO` [2-1, 5-Acetamido-2,7-anhydro-3,5-dideoxy-α-D-glycero-D-galacto-non-2-ulopyranosonic acid], for which the inhibition at 1000 µM on SpNanA is 36.4 ± 0.1%; on SpNanB [1], 30 ± 1.7%; at AuSialidase (setting [8]) it was 49.4 ± 1.3%; on VcSialidase, 22.7 ± 1.2%; on PmST1, 10.2 ± 2.8%; on BiNanH2, 6.6 ± 1.8%. Moreover, the inhibition at 1000 µM worked out at 4.6 ± 1.1% on hNEU2 and 3 ± 1.9% at SpNanC [2]. Further, the “Percentage inhibition (%) against CpNanI” value in the test on CpNanI is 26.7 ± 3.7%. On SpNanB [3], the “Conversion to Neu5Ac by SpNanB, estimated yield based on TLC” value was 80%.

`O=C(N[C@H]1[C@H]2O[C@@](C(=O)O)(C[C@@H]1O)O[C@@H]2[C@H](O)CO)C(F)(F)F` [2-2, 2,7-Anhydro-3,5-dideoxy-5-trifluoroacetamido-α-D-glycero-D-galacto-non-2-ulopyranosonic acid]: the “Percentage inhibition (%) against SpNanA” value at SpNanA is recorded as “moderate inhibitory activity”. The inhibition at 1000 µM turned out to be 83.8 ± 0.3% at SpNanA; 68.2 ± 2.6% on SpNanB [1]; 85.1 ± 0.3% on AuSialidase (setting [8]); 62.1 ± 0.6% on VcSialidase; 11 ± 2.7% at PmST1; 3.8 ± 2.6% on BiNanH2. Also, the inhibition at 1000 µM at hNEU2 worked out at 2.5 ± 2.1%; at SpNanC [2], 4.4 ± 2%. The 50% inhibitory concentration (IC50) was 250 to 500 µM against SpNanB [1], 225 ± 34 µM on AuSialidase (read-out: IC50 against AuSialidase) and 500 to 1000 µM against VcSialidase. In addition, the “Percentage inhibition (%) against SpNanB” value at SpNanB [1] is “weak inhibition”. The “Percentage inhibition (%) against AuSialidase” value at AuSialidase (setting [8]) is listed as “moderate inhibitory activity”. Also, the “Percentage inhibition (%) against CpNanI” value in the test with CpNanI was 44.1 ± 1.0%. For the same compound, the “Percentage inhibition (%) against VcSialidase” value at VcSialidase (setting [8]) is listed as “weak inhibition”.

`N[C@H]1[C@H]2O[C@@](C(=O)O)(C[C@@H]1O)O[C@@H]2[C@H](O)CO` [2-3, 5-Amino-2,7-anhydro-3,5-dideoxy-α-D-glycero-D-galacto-non-2-ulopyranosonic acid]: the inhibition at 1000 µM on SpNanA came to 19.3 ± 4.2%; at SpNanB [1], 11.7 ± 2.6%; at AuSialidase (setting [8]), 1.3 ± 2.2%; at VcSialidase, 1.3 ± 2%; at PmST1, 13.8 ± 3.3%; at BiNanH2, 3.2 ± 3.2%. The inhibition at 1000 µM turned out to be 1.4 ± 2.4% at hNEU2 and 14.9 ± 3% on SpNanC [2]. In addition, the “Percentage inhibition (%) against CpNanI” value in the test with CpNanI is listed as 10.1 ± 5.7%.

As for `O=C(O)[C@@]12C[C@@H](O)[C@@H](NC3CCCCC3)C(O1)[C@@H]([C@H](O)CO)O2` [2-4], the 50% inhibitory concentration (IC50) at SpNanA is 500 to 1000 µM; against SpNanB [1], 180 ± 23 µM; on VcSialidase, more than 1000 µM. The “Percentage inhibition (%) against SpNanA” value at SpNanA is reported as “weak inhibition”. Also, the inhibition at 1000 µM at SpNanA worked out at 61.2 ± 0.6%; on SpNanB [1] it was 86.6 ± 0.3%; on AuSialidase (setting [8]), 16.8 ± 2.4%; at VcSialidase it was 1.2 ± 0.7%; at PmST1 it was 12.3 ± 1.9%; at BiNanH2, 1.2 ± 0.9%. The inhibition at 1000 µM at hNEU2 was determined as 3.6 ± 0.1%; on SpNanC [2] it was 94.2 ± 0.1%. In addition, the “Percentage inhibition (%) against SpNanB” value on SpNanB [1] was “effective inhibitory activity”. For the same compound, the “Percentage inhibition (%) against CpNanI” value in the test with CpNanI was 13.6 ± 0.1%. For the same compound, the “Percentage inhibition (%) against SpNanC” value on SpNanC [2] (1 mM of each inhibitor, substrate Neu5Acα2-3GalβpNP 0.3 mM, pH 6.5) is given as “showed inhibition”.

Regarding `CC(=O)N[C@H]1[C@H]([C@H](O)[C@H](O)CO)OC(O[C@H]2[C@@H](O)[C@@H](CO)O[C@@H](Oc3ccc([N+](=O)[O-])cc3)[C@@H]2O)(C(=O)O)C[C@@H]1O` (some centres unmarked) [Neu5Acα2-3GalβpNP], at SpNanC [4], the Michaelis-Menten constant (Km) was 2700 ± 500 µM and the kcat was found to be 406.8 ± 39.0 s⁻¹. Moreover, the “Recognition by SpNanB (substrate specificity)” value at SpNanB [5] is on record as “+ (+ represents >80% conversion)”. Also, in the test on SpNanC [6], the “Percentage conversion (%) by SpNanC” value was 85.1 ± 2.4%.

For the compound `CC(=O)N[C@H]1[C@H]([C@H](O)[C@H](O)CO)O[C@@](O[C@H]2[C@@H](O)[C@@H](CO)O[C@@H](O[C@H]3[C@H](O)[C@@H](O)C(O)O[C@@H]3CO)[C@@H]2O)(C(=O)O)C[C@@H]1O` (stereo partly drawn) [α2-3-sialyllactose], in the test on SpNanC [7], the Km is 1080 ± 350 µM and the kcat was 0.313 ± 0.052 s⁻¹.

By inhibition is commonly meant the share of the control response that was lost under treatment. In general, IC50 refers to the concentration at which inhibition is half-maximal. One may read the Km as the concentration of substrate that gives half-maximal velocity. One may read the kcat as the maximal rate divided by the concentration of active sites.
